{
  "source": "patent US8124610B2",
  "about": "“Sodium channel inhibitors” (Icagen Inc., priority 2007, dated 2012)",
  "key": {"Nav1.3": {"target": "Nav1.3 (Homo sapiens, UniProt Q9NY46)", "sequence (Q9NY46 whole entry, looked up)": "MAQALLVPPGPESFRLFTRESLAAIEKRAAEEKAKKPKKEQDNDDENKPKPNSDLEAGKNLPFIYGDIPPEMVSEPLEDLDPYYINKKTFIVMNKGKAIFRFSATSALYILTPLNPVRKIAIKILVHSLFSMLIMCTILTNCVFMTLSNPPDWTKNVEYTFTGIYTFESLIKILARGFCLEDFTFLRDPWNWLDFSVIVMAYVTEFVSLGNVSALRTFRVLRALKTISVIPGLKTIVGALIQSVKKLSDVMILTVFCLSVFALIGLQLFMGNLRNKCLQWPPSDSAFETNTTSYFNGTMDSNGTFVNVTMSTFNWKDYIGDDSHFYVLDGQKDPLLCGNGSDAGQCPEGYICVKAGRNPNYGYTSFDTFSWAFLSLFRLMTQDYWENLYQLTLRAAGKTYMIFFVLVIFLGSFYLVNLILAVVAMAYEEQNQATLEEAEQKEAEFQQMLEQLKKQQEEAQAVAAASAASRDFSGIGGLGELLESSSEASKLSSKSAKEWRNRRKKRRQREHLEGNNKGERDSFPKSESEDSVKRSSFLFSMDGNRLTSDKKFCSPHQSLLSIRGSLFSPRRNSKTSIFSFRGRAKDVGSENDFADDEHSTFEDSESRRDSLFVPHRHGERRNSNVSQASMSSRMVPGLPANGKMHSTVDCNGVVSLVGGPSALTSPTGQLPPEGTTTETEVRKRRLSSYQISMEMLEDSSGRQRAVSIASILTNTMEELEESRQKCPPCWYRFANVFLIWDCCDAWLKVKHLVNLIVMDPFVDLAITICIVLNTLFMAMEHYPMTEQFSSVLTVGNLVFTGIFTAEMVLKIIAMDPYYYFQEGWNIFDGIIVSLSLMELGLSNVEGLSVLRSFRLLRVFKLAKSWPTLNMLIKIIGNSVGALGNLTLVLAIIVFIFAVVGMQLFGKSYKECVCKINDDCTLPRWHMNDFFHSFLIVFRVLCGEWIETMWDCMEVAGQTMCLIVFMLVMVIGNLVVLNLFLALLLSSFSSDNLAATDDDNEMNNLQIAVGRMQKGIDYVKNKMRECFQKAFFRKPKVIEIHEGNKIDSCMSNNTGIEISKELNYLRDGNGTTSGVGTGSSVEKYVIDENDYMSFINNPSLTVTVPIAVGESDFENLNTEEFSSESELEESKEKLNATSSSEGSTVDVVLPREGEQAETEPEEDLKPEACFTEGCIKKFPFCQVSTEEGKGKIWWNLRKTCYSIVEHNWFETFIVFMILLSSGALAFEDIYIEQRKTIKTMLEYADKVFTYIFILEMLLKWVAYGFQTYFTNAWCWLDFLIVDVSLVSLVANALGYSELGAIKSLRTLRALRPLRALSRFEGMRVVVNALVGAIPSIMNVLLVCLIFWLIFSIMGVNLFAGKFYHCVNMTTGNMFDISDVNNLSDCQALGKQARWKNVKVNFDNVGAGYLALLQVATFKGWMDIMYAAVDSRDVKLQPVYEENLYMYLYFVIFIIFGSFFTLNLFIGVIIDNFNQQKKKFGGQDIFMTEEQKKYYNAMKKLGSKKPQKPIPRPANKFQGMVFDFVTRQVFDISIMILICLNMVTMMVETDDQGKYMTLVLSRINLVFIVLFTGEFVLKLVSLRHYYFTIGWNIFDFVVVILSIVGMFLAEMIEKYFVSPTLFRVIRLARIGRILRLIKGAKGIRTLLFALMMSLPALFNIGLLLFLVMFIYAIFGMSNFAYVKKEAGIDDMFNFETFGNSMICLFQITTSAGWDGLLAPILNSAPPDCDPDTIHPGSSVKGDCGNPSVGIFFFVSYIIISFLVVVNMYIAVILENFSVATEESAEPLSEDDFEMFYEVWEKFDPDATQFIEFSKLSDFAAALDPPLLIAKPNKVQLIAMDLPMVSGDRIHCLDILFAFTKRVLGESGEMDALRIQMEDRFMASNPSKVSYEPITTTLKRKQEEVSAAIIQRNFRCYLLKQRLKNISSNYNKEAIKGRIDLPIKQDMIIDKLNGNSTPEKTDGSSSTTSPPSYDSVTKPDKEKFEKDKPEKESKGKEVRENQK", "settings": "read-out: TTX IC-50; cited from earlier work"}, "Nav1.6": {"target": "Nav1.6 (Homo sapiens, UniProt Q9UQD0)", "settings": "read-out: TTX IC-50; cited from earlier work"}, "Nav1.8": {"target": "Nav1.8 (Homo sapiens, UniProt Q9Y5Y9)", "settings": "read-out: TTX IC-50; cited from earlier work"}, "Nav1.9": {"target": "Nav1.9 (Homo sapiens, UniProt Q9UI33)", "settings": "read-out: TTX IC-50; cited from earlier work"}, "Nav1.1": {"target": "Nav1.1 (Homo sapiens, UniProt P35498)", "settings": "read-out: TTX IC-50; cited from earlier work"}, "Nav1.2": {"target": "Nav1.2 (Homo sapiens, UniProt Q99250)", "settings": "read-out: TTX IC-50; cited from earlier work"}, "[1]": {"settings": "cited from earlier work"}, "hSCN3A": {"target": "T1, hSCN3A (Homo sapiens, UniProt Q9NY46)", "T1 construct": "expressed in transfected cells", "T1 sequence (Q9NY46 whole entry)": "as the sequence (Q9NY46 whole entry, looked up) above", "experiment": "Whole-cell patch-clamp electrophysiology (conventional or PatchXpress), HEK cells expressing hSCN3A, estimated IC-50", "type": "cell-based", "settings": "read-out: SCN3A EIC-50", "procedure,_shortened": "(§1)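 Stably transfected HEK cells recorded by whole-cell voltage clamp (manual or PatchXpress) at 22–24 °C in pH 7.4 HEPES-buffered extracellular solution. Cells held at the empirically determined inactivation V1/2 after an 8 s prepulse, then stepped to 0 mV for 20 ms; % inhibition from current amplitude before vs after compound.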"}, "hSCN9A": {"target": "T2, hSCN9A (Homo sapiens, UniProt Q15858)", "T2 construct": "expressed in transfected cells", "T2 sequence (Q15858 whole entry)": "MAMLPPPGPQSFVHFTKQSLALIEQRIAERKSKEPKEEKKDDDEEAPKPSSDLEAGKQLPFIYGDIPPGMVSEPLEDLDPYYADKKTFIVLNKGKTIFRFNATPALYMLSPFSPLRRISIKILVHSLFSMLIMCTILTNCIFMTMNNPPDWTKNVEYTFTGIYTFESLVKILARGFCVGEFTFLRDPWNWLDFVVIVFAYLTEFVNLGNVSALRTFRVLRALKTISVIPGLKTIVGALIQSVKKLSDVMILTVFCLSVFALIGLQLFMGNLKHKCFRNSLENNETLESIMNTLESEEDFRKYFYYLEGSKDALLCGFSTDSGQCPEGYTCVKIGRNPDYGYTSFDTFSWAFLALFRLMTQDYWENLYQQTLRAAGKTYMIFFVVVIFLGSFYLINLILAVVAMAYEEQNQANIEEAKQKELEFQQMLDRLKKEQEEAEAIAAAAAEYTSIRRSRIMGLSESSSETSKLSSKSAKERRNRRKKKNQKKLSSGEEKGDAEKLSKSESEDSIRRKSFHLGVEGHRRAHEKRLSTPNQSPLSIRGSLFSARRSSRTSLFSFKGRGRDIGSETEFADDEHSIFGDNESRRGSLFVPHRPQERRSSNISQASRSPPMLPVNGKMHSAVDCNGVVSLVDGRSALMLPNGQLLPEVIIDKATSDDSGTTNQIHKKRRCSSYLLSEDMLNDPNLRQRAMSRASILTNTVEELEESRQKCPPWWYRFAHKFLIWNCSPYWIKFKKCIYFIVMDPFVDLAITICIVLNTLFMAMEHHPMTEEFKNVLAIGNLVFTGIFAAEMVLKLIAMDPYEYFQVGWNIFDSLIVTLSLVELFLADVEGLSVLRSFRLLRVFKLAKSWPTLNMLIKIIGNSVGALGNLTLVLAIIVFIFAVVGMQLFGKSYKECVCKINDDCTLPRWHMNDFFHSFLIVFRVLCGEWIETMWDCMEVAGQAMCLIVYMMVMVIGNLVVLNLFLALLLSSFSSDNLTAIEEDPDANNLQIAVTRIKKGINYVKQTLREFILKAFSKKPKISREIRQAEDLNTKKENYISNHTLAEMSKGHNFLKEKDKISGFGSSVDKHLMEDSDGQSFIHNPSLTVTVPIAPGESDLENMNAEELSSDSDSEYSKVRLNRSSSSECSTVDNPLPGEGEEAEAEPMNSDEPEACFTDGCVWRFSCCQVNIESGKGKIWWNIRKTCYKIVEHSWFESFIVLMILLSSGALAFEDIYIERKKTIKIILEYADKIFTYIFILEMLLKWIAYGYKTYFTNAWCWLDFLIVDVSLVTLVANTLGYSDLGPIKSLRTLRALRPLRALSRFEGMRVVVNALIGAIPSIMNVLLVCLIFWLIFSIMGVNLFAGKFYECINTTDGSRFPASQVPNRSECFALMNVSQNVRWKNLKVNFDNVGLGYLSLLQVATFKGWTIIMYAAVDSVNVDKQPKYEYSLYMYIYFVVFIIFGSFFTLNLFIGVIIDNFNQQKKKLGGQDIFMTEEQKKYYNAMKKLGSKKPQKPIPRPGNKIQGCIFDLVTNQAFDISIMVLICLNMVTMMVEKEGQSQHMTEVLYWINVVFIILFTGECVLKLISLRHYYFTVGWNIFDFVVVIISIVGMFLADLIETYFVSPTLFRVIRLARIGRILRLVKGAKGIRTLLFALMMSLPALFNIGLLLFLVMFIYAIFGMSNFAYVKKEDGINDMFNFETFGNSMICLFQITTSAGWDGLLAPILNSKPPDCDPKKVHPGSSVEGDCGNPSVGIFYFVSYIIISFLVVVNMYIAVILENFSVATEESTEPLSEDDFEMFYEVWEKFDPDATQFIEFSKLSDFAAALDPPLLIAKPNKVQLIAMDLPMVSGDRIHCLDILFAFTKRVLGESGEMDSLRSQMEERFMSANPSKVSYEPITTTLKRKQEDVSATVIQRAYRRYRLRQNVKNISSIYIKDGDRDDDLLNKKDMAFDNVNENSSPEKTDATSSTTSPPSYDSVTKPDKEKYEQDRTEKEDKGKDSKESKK", "experiment": "Whole-cell patch-clamp electrophysiology (conventional or PatchXpress), HEK cells expressing hSCN9A, estimated IC-50", "type": "cell-based", "settings": "read-out: SCN9A EIC-50", "procedure,_shortened": "as §1"}, "[2]": {"settings": "Table V, estimated IC-50 from single point electrophysiology, cells clamped at V1/2"}},
  "note": "pIC50: −log10 of the molar value. Read-outs that look alike come from different tables or passages of the source.",
  "data": [
    {"smiles": "NC1=N[C@H](O)[C@H]2[C@H]3O[C@]4(O)O[C@@H]([C@@H](O)[C@@]2(N1)[C@@H]4O)[C@]3(O)CO", "note": "[TTX, tetrodotoxin]", "values": [
      {"measurement": "pIC50", "setting": "Nav1.3", "value": 7.82},
      {"measurement": "pIC50", "setting": "Nav1.6", "value": 8.22},
      {"measurement": "pIC50", "setting": "Nav1.8", "value": 4.30},
      {"measurement": "pIC50", "setting": "Nav1.9", "value": 6.00},
      {"measurement": "pIC50", "setting": "Nav1.1", "value": 8.00},
      {"measurement": "pIC50", "setting": "Nav1.2", "value": 8.00}
    ]},
    {"smiles": "NCC1(CC(=O)O)CCCCC1", "note": "[gabapentin]", "values": [
      {"measurement": "patients that respond to gabapentin treatment for neuropathic pain", "setting": "[1]", "value": 30, "unit": "%"}
    ]},
    {"smiles": "O=S(=O)(Nc1ccccn1)c1ccc(Nc2nc(Cc3ccc(Cl)cc3)cs2)cc1", "note": "[Compound 103, 4-(4-(4-chlorobenzyl)thiazol-2-ylamino)-N-(pyridin-2-yl)benzenesulfonamide]", "values": [
      {"measurement": "pIC50", "setting": "hSCN3A; estimated IC-50, HEK cells expressing hSCN3A, class symbols or bounds", "value": "< 5.00"},
      {"measurement": "pIC50", "setting": "hSCN9A; estimated IC-50, HEK cells expressing hSCN9A, class symbols or bounds", "value": "< 6.00"}
    ]},
    {"smiles": "CC(C)(C)n1nc(Cc2ccc(Cl)cc2)cc1Nc1ccc(S(=O)(=O)Nc2nccs2)cc1", "note": "[Compound 15, 4-(1-tert-butyl-3-(4-chlorobenzyl)-1H-pyrazol-5-ylamino)-N-(thiazol-2-yl)benzenesulfonamide]", "values": [
      {"measurement": "pIC50", "setting": "hSCN3A; [2]", "value": "> 5.70"},
      {"measurement": "pIC50", "setting": "hSCN9A; [2]", "value": "> 5.70"}
    ]}
  ]
}
